Measurements from patent EP0429333B1, “Process for producing oxazopyrroloquinolines, novel oxazopyrroloquinolines, and use of oxazopyrroloquinolines” (priority 1989, dated 1991).

Key:
[1] = system: D-galactosamine-induced liver diseases; experiment: Pharmacological effect on D-galactosamine-induced liver diseases; format: in vivo, SD rats; conditions: intraperitoneally twice, 1.2 ml of 0.4, 1.0, 2.0 or 3.0 mg/ml; serum 23 hours after D-galactosamine
Protocol: Thirty SD rats (male, 7 weeks old, body weight: about 240 g; supplied by Japan Charles River Co.) were divided to six groups (A-F) each consisting of five rats. All rats were fasted for 18 hours and 1.2 ml of solutions containing 0.4 mg/ml, 1.0 mg/ml, 2.0 mg/ml, and 3.0 mg/ml of OPQ were intraperitoneally administered to rats of groups C, D, E and F, respectively, and furthermore, after lapse of 40 minutes, OPQ in the same doses as above were intraperitoneally administered to the rats, respectively. In these cases, the OPQ was dissolved in physiological saline and administered to the rats. For the rats of group B, 1.2 ml of physiological saline was intraperitoneally administered in place of the OPQ solution.
Furthermore, after lapse of 20 minutes, 1.2 ml of a solution containing 0.2 mg/ml of D-galactosamine was subcutaneously injected to the rats of groups B-F. Neither OPQ nor D-galactosamine was administered to the rats of group A.
After lapse of 23 hours from administration of D-galactosamine, blood was collected from abdominal aorta and serum was obtained by centrifugal separation.
GPT, GOT and total amount of bilirubin were measured by clinical examination reagent (trademark: FUJI DRYCHEMSLIDE manufactured by Fuji Photo Film Co., Ltd.). The results are shown in Table 28 by average value of five rats.

[2] = system: B cell; experiment: Test on B cell blast transformation reaction, spleen cells of treated mice; format: in vivo, C3H/He mice; conditions: for Relative activity (%): no administration = 100
Protocol: Cells of spleen of C3H/He mice to which OPQ was administered were obtained in the same manner as in Example 38.
Further, intake amount of ^3H-thymidine was examined in the same manner as in Example 38 except that 25 µg/ml or 50 µg/ml of lipopolysaccharide (LPS WE E. coli 0111, Difco) was used in place of the concanavalin A as mitogen. Values in the table are average values of intake amount (cpm) of ^3H in culture under four same conditions.
In Examples 36 - 40, macrophage activity was examined according to chemotaxis of peritoneal macrophage (literature 1) and activity of T cell and that of B cell were examined according to blast transformation reaction using concanavalin A and lipopolysaccharide, (LPS) as mitogen (literature 2). Literature 1: "Function of Macrophage and Method of Measurement of Function", pages 61-65 1985), edited by Educational Committee of Japan Bacteriological Society and published from Saikon Shuppan Co.) Literature 2: "New Method of Searching of Function of Lymphocytes", pages 350-355 (1987) edited by Junichi Yada and Michio Fujiwara and published from Chugai Igaku Co.

[3] = system: cataract; experiment: Anti-cataract effect, intraperitoneal administration, 50 % galactose fed rats; format: in vivo, Sprague-Davley rats; conditions: 2 mg, 5 mg, 10 mg and 20 mg per 1 kg of rat intraperitoneally once a day
Protocol: Eightyfour male Sprague-Davley rats (supplied from Japan Charles Liver Co.) of four weeks old and having a body weight of 70 - 80 g were used and the following experiments were conducted. One group consisted of six rats.
The groups included normal group, 50 % galactose administration group, PQQ administration group, and OPQ administration group. Commercially available feeding stuff (manufactured by Japan Clea Co.) was given to the rats of normal group, and rats of 50 % galactose administration group, PQQ administration group and OPQ administration group were allowed to freely take powdery feeding stuff comprising a mixture of the above-mentioned commercially available powder feeding stuff and D-galactose for food additive in equal weight.
To the rats of PQQ and OPQ administration groups were intraperitoneally administered PQQ·2Na or OPQ in a dosage of 2 mg, 5 mg, 10 mg and 20 mg per 1 kg of rat once a day simultaneously with starting of galactose feeding and until termination of feeding.
On the 6th day and the 9th day from starting of experiment, eyeball was observed by stereoscopic microscope and judgment on cataract was made according to the following criteria. A0: No muddiness (normal) A1: Light white muddiness in the surface portion. A2: A slight heavy white muddiness in the surface portion. A3: Heavy white muddiness in the surface portion. A4: Heavy white muddiness in the surface portion and a slight white muddiness in the core portion. A5: Heavy white muddiness in the surface portion and the core portion.

[4] = system: male SPF-ICR mice; experiment: Acute toxicity test
Protocol: (§1) (1) Acute toxicity test: • (i) To male SPF-ICR mice of 5 weeks old (supplied by Charles River Co.) were intraperitoneally administered PQQ·2Na and OPQs in the dosages of 20, 40, 80, 160 and 200 mg/kg body weight of mouse, respectively and they were bred at 25°C for 14 days. OPQ, 1-methylpropyl OPQ, 2-methylthioethyl OPQ, and benzyl OPQ were used as the OPQs. One group consisted of 8 mice. […] One group consisted of 8 mice. […] They were bred at 25°C for 14 days. One group consisted of eight mice. […] (2) Toxicity to kidney (i) Toxicity to kidney determined by urine examination: In the same manner as in the acute toxicity test, PQQ·2Na and OPQs were respectively intraperitoneally administered to mice and these mice were bred. Urine was collected every day and concentration of glucose in urine was obtained using Uristex II (manufactured by Miles·Sankyo Co.). […]

[5] = Acute toxicity test; conditions: mouse, in vivo, ip
Protocol: as §1

In the case of `O=C(O)c1cc(C(=O)O)c2c(n1)c1ncoc1c1cc(C(=O)O)[nH]c12` [OPQ, oxazopyrroloquinoline], the “GPT, GOT and total amount of bilirubin which increased by administration of D-galactosamine” value [1] is reported as “all sharply decreased”, the “Relative activity (%)” value ([2]; 5mg/kg mouse x 7 days, Lipopolysaccharide 25 µg/ml) is reported as 108% and the “Relative activity (%)” value ([2]; 5mg/kg mouse x 7 days, Lipopolysaccharide 50 µg/ml) is reported as 109%. For the same compound, the “intake amount (cpm) of ^3H” value ([2]; 5mg/kg mouse x 7 days, Lipopolysaccharide (LPS) 0 µg/ml, no administration 6562) was 9303 cpm, the “intake amount (cpm) of ^3H” value ([2]; 5mg/kg mouse x 7 days, Lipopolysaccharide (LPS) 25 µg/ml, no administration 34557) was 37434 cpm and the “intake amount (cpm) of ^3H” value ([2]; 5mg/kg mouse x 7 days, Lipopolysaccharide (LPS) 50 µg/ml, no administration 42247) was 46193 cpm. For the same compound, the “Relative activity (%)” value ([2]; 10mg/kg mouse x 7 days, Lipopolysaccharide 25 µg/ml) was 121%, the “Relative activity (%)” value ([2]; 10mg/kg mouse x 7 days, Lipopolysaccharide 50 µg/ml) was 126% and the “intake amount (cpm) of ^3H” value ([2]; 10mg/kg mouse x 7 days, Lipopolysaccharide (LPS) 0 µg/ml, no administration 6562) was 9301 cpm. For the same compound, the “intake amount (cpm) of ^3H” value ([2]; 10mg/kg mouse x 7 days, Lipopolysaccharide (LPS) 25 µg/ml, no administration 34557) was 41876 cpm, the “intake amount (cpm) of ^3H” value ([2]; 10mg/kg mouse x 7 days, Lipopolysaccharide (LPS) 50 µg/ml, no administration 42247) was 53267 cpm and the rats died [3] was “no rats died”. For the same compound, the death of mice ([4]; 0.1 - 0.4 g/kg intraperitoneally, 8 mice per group, 14 days) was “All mice survived”, the death of mice ([4]; 0.8 g/kg intraperitoneally, 8 mice, 14 days) was “two mice died” and the death of mice ([4]; 1.2 g/kg intraperitoneally, 8 mice, 14 days) was “six mice died”. For the same compound, the death of mice ([4]; mouse, in vivo) was “no mice died”, the death of mice ([4]; orally 1.0 g, 1.5 g or 2.0 g/kg mouse, 8 mice per group, 14 days) was “No mice died” and the LD50 at 336 h [5] was roughly 1000 mg/kg.
